Assay results as given in ChEMBL document CHEMBL1201862, “PubChem BioAssay data set” (2004).
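96-well plates; 48 h exposure; 5 concentrations. Endpoints by linear interpolation between flanking doses. Not reached: highest tested concentration assigned. GI50 marks 50% less growth.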 The source made the active and inactive calls. Cut-off read from the data, not from the text of the source: active = GI50 up to about 1.1 µM and inactive = higher.

Assays:
Assay in all cases: NCI tumour cell line growth inhibition, 48 h
[1] = test system: BT-549
[2] = test system: SNB-75
[3] = test system: A498
[4] = test system: NCI-H460
[5] = test system: HT-29
[6] = test system: SF-268
[7] = test system: A549
[8] = test system: HOP-62
[9] = test system: NCI/ADR-RES
[10] = test system: MDA-MB-435
[11] = test system: 786-0
[12] = test system: CAKI-1
[13] = test system: M14
[14] = test system: NCI-H23
[15] = test system: SF-539
[16] = test system: MCF7
[17] = test system: NCI-H226
[18] = test system: HL-60

Measured: GI50

COc1ccc(C2CC(c3ccc4ccccc4c3O)=NN2C(C)=O)cc1OC (stereo unspecified)
inactive: [1] > 100 µM | [2] > 100 µM | [3] > 100 µM | [4] > 100 µM | [5] > 100 µM | [6] 61.7 µM | [7] > 100 µM | [8] > 100 µM | [9] > 100 µM | [10] > 100 µM | [11] > 100 µM | [12] > 100 µM | [13] > 100 µM | [14] > 100 µM | [15] > 100 µM | [16] > 100 µM | [17] > 100 µM

C=C1C(=O)OC2/C=C(\C)C(=O)CC3OC(C)(C)OC3(C)CC(OC(=O)/C(C)=C/C)C12 (stereo unspecified)
inactive: [1] 10.4 µM | [2] > 42.9 µM | [3] 21.9 µM | [4] 17.1 µM | [5] 7.89 µM | [6] 12.6 µM | [7] 48.8 µM | [8] 58.1 µM | [10] 19.6 µM | [11] 7.66 µM | [12] 3.51 µM | [13] 22.5 µM | [14] 20.2 µM | [15] 17.1 µM | [16] 7.46 µM | [18] 3.26 µM | [17] 23.4 µM

COc1ccc2c(c1)SC1=Nc3sc4cc(OC)ccc4[n+]3CN12
inactive: [1] 66.8 µM | [4] 17.2 µM | [5] 16.2 µM | [6] 2.89 µM | [7] 29.1 µM | [8] 49.8 µM | [9] 99.3 µM | [10] 26.9 µM | [11] 29.9 µM | [12] 32.9 µM | [13] 33.1 µM | [14] 15.7 µM | [15] 42.2 µM | [16] 5.25 µM | [18] 9.29 µM

Cc1ccc(S[C@@H](C)[C@@](O)(CF)CN(Cc2ccccc2)C(=O)C(F)(F)F)cc1
inactive: [1] 19.6 µM | [3] 11.5 µM | [4] 15.5 µM | [5] 10.3 µM | [6] 33.2 µM | [7] 14.8 µM | [9] 20.6 µM | [10] 19.6 µM | [11] 16.7 µM | [12] 25.5 µM | [13] 17.1 µM | [14] 18.4 µM | [16] 20.8 µM | [18] 19.2 µM

CCC1OC2C(CC=C(C)C)=C3OC(C)(O)C(C)(CC)C(=O)C3=C3OC(=O)C=C1C32 (stereo unspecified)
inactive: [1] 15.1 µM | [3] 23.6 µM | [4] 17.4 µM | [6] 38.6 µM | [7] 22.6 µM | [9] 27.8 µM | [10] 31.4 µM | [11] 25.4 µM | [12] 54.2 µM | [13] 27.7 µM | [14] 28.4 µM | [15] 8.55 µM | [16] 27.9 µM | [17] 25.9 µM

C=CCNS(=O)(=O)c1ncnc2[nH]cnc12
inactive: [1] > 100 µM | [2] > 100 µM | [3] > 100 µM | [5] > 100 µM | [7] > 100 µM | [8] > 100 µM | [9] > 100 µM | [10] > 100 µM | [11] > 100 µM | [12] 26.2 µM | [13] > 100 µM | [14] > 100 µM | [16] > 100 µM | [17] > 100 µM

Oc1ccc(-c2nn3c(CCCCCCCCc4nnc5sc(-c6ccc(O)cc6)nn45)nnc3s2)cc1
inactive: [1] > 100 µM | [2] > 100 µM | [3] > 100 µM | [4] > 100 µM | [5] > 100 µM | [6] > 100 µM | [7] > 100 µM | [8] > 100 µM | [9] > 100 µM | [10] > 100 µM | [11] > 100 µM | [12] > 100 µM | [13] > 100 µM | [14] > 100 µM | [15] > 100 µM | [16] > 100 µM | [17] > 100 µM

COc1cc(C2OC(N)=C(C#N)C3=C2C(C)CCC3)cc(OC)c1OC (stereo unspecified)
inactive: [1] > 100 µM | [2] 10.9 µM | [5] > 100 µM | [6] > 100 µM | [8] 12.7 µM | [9] > 100 µM | [10] > 100 µM | [11] 42.6 µM | [12] > 100 µM | [13] > 100 µM | [14] > 100 µM | [15] 11.9 µM | [16] > 100 µM | [18] > 100 µM | [17] 68.7 µM

COc1cccc(C(NC2=NCCC=N2)c2cc3c(cc2O)OCO3)c1O (stereo unspecified)
inactive: [1] 16.7 µM | [2] 23.3 µM | [3] 27.7 µM | [4] 29.8 µM | [5] 38.5 µM | [6] 34.8 µM | [7] 41.1 µM | [8] 25.7 µM | [10] 29 µM | [11] 12.4 µM | [12] 49.1 µM | [13] 27.4 µM | [14] 32.1 µM | [15] 25.8 µM | [16] 18 µM | [18] 8.93 µM | [17] 43.5 µM

COC(=O)c1nsc(OC)c1Cl
inactive: [1] > 100 µM | [2] > 100 µM | [5] > 100 µM | [6] > 100 µM | [7] > 100 µM | [8] > 100 µM | [9] > 100 µM | [10] > 100 µM | [11] > 100 µM | [12] > 100 µM | [13] > 100 µM | [14] > 100 µM | [15] > 100 µM | [16] > 100 µM | [18] > 100 µM | [17] > 100 µM

CC1(C)CCC[C@@]2(C)C1C(=O)[C@@H]1O[C@]1(C)[C@@H]2CO (stereo partly specified)
inactive: [1] 16.9 µM | [2] 24.5 µM | [3] 38.6 µM | [4] 13.5 µM | [5] 37.9 µM | [6] 26.2 µM | [7] 19.6 µM | [8] 40.2 µM | [9] 48.8 µM | [10] 21 µM | [11] 23.2 µM | [13] 24.4 µM | [14] 16.3 µM | [15] 37.8 µM | [16] > 100 µM | [18] 17.4 µM | [17] 33.3 µM

Cc1cccc(N/C(=C(/C(Cl)=C(Cl)Cl)[N+](=O)[O-])n2nnc3ccccc32)c1
inactive: [1] 18.6 µM | [3] 12.5 µM | [4] 20.7 µM | [5] 17.3 µM | [6] 15.9 µM | [7] 18 µM | [8] 18 µM | [9] 19.7 µM | [10] 20.4 µM | [11] 19.5 µM | [12] 17.5 µM | [13] 21.9 µM | [14] 16.8 µM | [15] 15.8 µM | [16] 21.6 µM | [17] 12.9 µM

CN(C)Cc1nsc(N(C)C)n1
inactive: [1] > 100 µM | [2] > 100 µM | [3] > 100 µM | [4] > 100 µM | [5] > 100 µM | [6] > 100 µM | [7] > 100 µM | [8] > 100 µM | [9] > 100 µM | [10] > 100 µM | [11] > 100 µM | [12] > 100 µM | [13] > 100 µM | [14] > 100 µM | [15] > 100 µM | [16] > 100 µM | [17] > 100 µM

O=C1C[C@H]2[C@@H](O1)[C@@H](O)CN1C(=O)c3ccccc3[C@H]21
inactive: [1] > 100 µM | [2] > 100 µM | [3] > 100 µM | [4] > 100 µM | [5] > 100 µM | [6] > 100 µM | [7] > 100 µM | [8] > 100 µM | [9] > 100 µM | [10] > 100 µM | [11] > 100 µM | [12] > 100 µM | [13] > 100 µM | [14] > 100 µM | [15] > 100 µM | [16] > 100 µM | [17] > 100 µM

Cc1ccc(S(=O)(=O)N2CCCSCCSCCCSCC2)cc1
inactive: [1] > 100 µM | [2] 86.7 µM | [4] > 100 µM | [5] > 100 µM | [6] > 100 µM | [7] > 100 µM | [8] > 100 µM | [9] > 100 µM | [10] > 100 µM | [11] > 100 µM | [13] > 100 µM | [14] > 100 µM | [15] > 100 µM | [16] > 100 µM | [18] > 100 µM

C#CCN(Cc1ccc2[nH]c(N)nc(=O)c2c1)c1ccc(C(=O)NC(CCC(=O)O)C(=O)O)cc1 (stereo unspecified)
active: [15] 0.506 µM
inactive: [1] 8.11 µM | [3] 15.7 µM | [4] 6.95 µM | [5] > 100 µM | [6] 17.5 µM | [7] 53.5 µM | [8] 23.4 µM | [9] 36.6 µM | [10] > 100 µM | [11] 6.38 µM | [12] 5.3 µM | [13] 51.3 µM | [14] > 100 µM | [16] 5.13 µM | [18] > 100 µM | [17] > 100 µM

CCOC(=O)Nc1cc(NC(/C=N/NC(C)=O)C(=O)OCC)c(OC)cc1NC(C)=O (stereo unspecified)
inactive: [1] > 100 µM | [2] > 100 µM | [3] > 100 µM | [4] > 100 µM | [5] > 100 µM | [6] > 100 µM | [7] > 100 µM | [8] > 100 µM | [9] > 100 µM | [10] > 100 µM | [11] > 100 µM | [12] > 100 µM | [13] > 100 µM | [14] > 100 µM | [16] > 100 µM | [17] > 100 µM
